Drawing on ChEMBL document CHEMBL3774308, “KATching-Up on Small Molecule Modulators of Lysine Acetyltransferases” (J Med Chem, 2016), this text covers IC50 and Kd for 2 compounds.

Experiment [1] deals with T1, Histone acetyltransferase p300 (Homo sapiens, UniProt Q09472). The experiment is described as follows: Inhibition of p300 (unknown origin) using N-terminal histone H4-20 peptide substrate incubated for 10 mins by liquid scintillation counting method in presence of [14C]acetyl-CoA.
For experiment [2], the target named is T2, Histone acetyltransferase ESA1 (Saccharomyces cerevisiae (strain ATCC 204508 / S288c) (Baker's yeast), UniProt Q08649).
T2 sequence (Q08649 whole entry): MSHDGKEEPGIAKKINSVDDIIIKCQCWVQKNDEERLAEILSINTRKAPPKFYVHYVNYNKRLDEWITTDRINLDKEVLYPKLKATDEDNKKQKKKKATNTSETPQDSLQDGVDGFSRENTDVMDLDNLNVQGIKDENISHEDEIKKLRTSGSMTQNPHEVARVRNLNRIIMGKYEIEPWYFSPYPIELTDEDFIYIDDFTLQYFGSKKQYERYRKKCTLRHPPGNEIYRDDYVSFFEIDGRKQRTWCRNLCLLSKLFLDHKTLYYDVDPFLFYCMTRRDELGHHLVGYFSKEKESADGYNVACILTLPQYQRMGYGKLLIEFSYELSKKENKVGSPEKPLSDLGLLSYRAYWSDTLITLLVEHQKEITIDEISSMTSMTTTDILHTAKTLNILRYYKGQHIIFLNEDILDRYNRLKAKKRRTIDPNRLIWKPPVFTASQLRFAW
The experiment is described as follows: Inhibition of yeast ESA1 using N-terminal histone H3 substrate by radiometric filter binding based […] in presence of [3H]acetyl-CoA.

In experiment [3] the target is Histone acetyltransferase KAT2B (Homo sapiens, UniProt Q92831). The experiment is described as follows: Inhibition of PCAF (unknown origin) using N-terminal histone H3-20 peptide substrate incubated for 3.5 mins by liquid scintillation counting method in presence of [3H]acetyl-CoA.
Sequence of Histone acetyltransferase KAT2B (Q92831 whole entry): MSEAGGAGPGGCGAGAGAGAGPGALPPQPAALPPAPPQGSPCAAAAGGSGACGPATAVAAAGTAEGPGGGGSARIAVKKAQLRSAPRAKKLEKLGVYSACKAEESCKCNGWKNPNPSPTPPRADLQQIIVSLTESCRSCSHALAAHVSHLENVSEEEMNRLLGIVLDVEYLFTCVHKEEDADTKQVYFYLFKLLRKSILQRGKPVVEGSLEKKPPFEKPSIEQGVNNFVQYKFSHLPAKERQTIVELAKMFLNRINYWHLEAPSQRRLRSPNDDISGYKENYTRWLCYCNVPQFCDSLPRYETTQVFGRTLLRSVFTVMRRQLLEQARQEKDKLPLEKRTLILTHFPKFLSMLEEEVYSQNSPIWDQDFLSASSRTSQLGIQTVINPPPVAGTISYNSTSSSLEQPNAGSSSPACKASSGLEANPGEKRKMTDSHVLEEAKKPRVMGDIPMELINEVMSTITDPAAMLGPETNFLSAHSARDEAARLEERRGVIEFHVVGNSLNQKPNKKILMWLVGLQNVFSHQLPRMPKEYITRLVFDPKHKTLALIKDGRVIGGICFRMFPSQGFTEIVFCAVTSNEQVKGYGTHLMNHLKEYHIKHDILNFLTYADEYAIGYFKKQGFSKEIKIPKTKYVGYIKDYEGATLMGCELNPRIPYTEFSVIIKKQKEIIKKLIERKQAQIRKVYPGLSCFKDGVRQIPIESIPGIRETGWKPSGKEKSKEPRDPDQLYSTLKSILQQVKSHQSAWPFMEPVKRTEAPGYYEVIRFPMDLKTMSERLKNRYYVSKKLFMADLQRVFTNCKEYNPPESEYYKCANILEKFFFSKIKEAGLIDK
The target of experiment [4] is Histone acetyltransferase KAT5 (Homo sapiens, UniProt Q92993). The experiment is described as follows: Inhibition of full length TIP60 (unknown origin) expressed in Escherichia coli using N-terminal histone H4-20 peptide substrate incubated for 10 mins by liquid scintillation counting method in presence of [3H]acetyl-CoA.
Sequence of Histone acetyltransferase KAT5 (Q92993 whole entry): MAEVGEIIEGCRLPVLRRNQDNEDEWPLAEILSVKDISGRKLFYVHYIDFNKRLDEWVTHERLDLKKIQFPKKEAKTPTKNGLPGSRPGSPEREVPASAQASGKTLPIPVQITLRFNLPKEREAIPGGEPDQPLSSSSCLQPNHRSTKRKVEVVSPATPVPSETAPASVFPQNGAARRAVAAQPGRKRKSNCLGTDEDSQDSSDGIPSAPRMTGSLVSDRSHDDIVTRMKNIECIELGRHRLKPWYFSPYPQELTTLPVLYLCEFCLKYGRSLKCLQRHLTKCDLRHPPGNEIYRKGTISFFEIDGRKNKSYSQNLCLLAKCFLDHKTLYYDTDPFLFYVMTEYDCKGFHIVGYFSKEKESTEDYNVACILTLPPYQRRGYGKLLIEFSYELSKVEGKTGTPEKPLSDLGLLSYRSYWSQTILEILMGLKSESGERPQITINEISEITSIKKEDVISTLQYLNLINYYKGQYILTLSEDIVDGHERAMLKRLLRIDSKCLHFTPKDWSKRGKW
The target in a further experiment is CREB-binding protein (Homo sapiens, UniProt Q92793). The experiment is described as follows: Inhibition of human CREBBP expressed in competent escherichia coli BL21(DE3)-R3-pRARE2 cells by isothermal titration calorimetry.
In experiment [5] the target is T1, Histone acetyltransferase p300. The experiment is described as follows: Inhibition of human p300 expressed in competent escherichia coli BL21(DE3)-R3-pRARE2 cells by isothermal titration calorimetry.

T1 sequence (Q09472 whole entry): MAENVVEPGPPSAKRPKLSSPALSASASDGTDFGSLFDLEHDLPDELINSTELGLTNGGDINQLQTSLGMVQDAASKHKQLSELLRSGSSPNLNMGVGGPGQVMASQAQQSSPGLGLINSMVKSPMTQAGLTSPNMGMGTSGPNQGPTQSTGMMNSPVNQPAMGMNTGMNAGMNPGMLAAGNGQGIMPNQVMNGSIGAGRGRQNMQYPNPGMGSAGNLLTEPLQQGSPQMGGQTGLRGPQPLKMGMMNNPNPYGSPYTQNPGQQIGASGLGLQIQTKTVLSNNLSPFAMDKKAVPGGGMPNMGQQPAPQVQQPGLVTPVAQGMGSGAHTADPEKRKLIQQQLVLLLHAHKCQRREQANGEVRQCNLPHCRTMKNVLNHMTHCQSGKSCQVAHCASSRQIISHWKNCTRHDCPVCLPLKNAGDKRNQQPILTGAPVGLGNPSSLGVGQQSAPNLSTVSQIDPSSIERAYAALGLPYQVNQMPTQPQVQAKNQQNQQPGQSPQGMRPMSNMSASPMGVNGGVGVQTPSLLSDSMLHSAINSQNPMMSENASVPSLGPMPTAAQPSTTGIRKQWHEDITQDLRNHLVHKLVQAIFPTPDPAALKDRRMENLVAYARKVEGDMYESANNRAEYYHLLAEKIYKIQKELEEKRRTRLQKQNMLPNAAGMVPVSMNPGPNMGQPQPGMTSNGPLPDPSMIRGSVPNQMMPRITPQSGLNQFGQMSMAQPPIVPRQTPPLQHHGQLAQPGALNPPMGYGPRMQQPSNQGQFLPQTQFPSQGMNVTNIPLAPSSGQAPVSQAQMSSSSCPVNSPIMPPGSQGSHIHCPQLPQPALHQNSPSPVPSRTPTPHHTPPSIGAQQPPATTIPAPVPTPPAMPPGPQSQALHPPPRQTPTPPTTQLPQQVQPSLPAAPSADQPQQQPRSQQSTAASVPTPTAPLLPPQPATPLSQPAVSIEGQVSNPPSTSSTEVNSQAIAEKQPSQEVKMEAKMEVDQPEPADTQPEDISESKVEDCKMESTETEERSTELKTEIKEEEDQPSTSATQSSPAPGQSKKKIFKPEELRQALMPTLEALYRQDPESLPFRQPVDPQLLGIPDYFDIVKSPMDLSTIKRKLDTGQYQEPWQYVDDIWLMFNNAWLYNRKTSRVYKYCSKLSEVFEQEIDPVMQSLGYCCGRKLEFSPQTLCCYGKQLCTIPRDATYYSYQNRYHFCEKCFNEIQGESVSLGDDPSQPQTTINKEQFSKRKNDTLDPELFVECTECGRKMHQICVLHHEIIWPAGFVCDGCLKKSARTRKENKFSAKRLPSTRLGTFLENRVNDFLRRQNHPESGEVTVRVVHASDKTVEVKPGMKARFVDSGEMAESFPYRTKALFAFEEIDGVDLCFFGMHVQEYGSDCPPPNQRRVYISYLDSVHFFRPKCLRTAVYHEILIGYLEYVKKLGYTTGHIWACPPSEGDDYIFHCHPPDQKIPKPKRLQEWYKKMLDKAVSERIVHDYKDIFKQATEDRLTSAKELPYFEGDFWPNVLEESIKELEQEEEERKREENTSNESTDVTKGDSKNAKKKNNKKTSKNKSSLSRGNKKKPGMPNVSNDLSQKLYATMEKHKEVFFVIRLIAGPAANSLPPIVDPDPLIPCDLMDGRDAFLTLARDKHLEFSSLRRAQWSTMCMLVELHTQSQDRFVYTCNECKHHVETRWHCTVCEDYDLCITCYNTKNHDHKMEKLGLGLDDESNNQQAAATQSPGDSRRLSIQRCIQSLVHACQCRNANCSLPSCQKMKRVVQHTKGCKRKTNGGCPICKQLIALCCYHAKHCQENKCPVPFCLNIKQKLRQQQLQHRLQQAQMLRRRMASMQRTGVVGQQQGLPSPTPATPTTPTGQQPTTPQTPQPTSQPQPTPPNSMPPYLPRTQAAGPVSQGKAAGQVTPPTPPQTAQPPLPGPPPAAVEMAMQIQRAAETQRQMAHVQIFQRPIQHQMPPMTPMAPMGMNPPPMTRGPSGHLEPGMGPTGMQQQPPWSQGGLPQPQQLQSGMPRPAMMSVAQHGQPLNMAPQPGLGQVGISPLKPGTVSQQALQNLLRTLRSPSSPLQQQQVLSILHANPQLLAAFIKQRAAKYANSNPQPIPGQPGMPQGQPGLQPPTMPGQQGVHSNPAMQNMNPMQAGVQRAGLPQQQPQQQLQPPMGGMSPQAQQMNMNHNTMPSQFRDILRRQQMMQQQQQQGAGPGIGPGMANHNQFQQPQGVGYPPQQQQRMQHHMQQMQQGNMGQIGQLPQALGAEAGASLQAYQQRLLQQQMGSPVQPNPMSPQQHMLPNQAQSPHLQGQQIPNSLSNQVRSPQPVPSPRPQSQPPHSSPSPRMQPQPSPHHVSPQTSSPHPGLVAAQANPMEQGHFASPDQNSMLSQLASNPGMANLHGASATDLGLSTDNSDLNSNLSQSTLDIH

Regarding `COc1ccc(C2CC(c3cccs3)=NN2c2nc(-c3ccc(N4C(=O)c5ccccc5C4=O)cc3)cs2)cc1OC` (stereo unspecified), the IC50 in experiment [1] was 150 µM; in experiment [2] it was 190 µM; in experiment [3], > 100 µM; in experiment [4] it was 149 µM.
Regarding `CCC(=O)N1CCOc2c(cc(-c3ccc(OC)c(OC)c3)cc2OC[C@H]2CCCN(C)C2)C1`, the dissociation constant (Kd) at CREB-binding protein came out at 0.151 µM; in experiment [5] it was 0.167 µM.
